pEC50: −log10 of the molar value.
Columns and labels:
[1] = tested on: Wnt-responsive promoter (Sp5-Luc reporter) in SW480 colon carcinoma cells; assay: Sp5-Luc reporter gene screening assay for Wnt activity in SW480 cells; format: cell-based, human; conditions: 36 to 48 hours, luminescence
Outline: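 SW480 cells stably carrying a luciferase reporter under an Sp5 promoter with eight TCF/LEF sites, plated at 4,000 cells/well in DMEM with 1% FBS and incubated 36 to 48 hours at 37° C. Luminescence normalized to DMSO-only cells; EC50 fitted by four-parameter nonlinear regression.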

recombinant GSK3β kinase = recombinant GSK3β kinase (Homo sapiens (Human), UniProt P49841); assay: GSK3β kinase assay (Ser/Thr 09 peptide Z-lyte, FRET); format: biochemical; conditions: GSK3β kinase, 46 μM ATP, one hour; method calls values IC50
[2] = tested on: SW480 colon carcinoma cells; assay: Cell viability assay (CellTiter-Glo) in SW480 cells; format: cell-based, human; conditions: four days
[3] = tested on: primary human fibroblasts derived from IPF patients (LL29 cells), α-smooth muscle actin; assay: Inhibition of fibrotic process: αSMA in TGF-β1 treated LL29 fibroblasts; format: cell-based; conditions: for pEC50: LL29 cells, TGF-β1 20 ng/mL, 4 days, % cells positive for αSMA; for inhibition at 10 µM: read-out: percent inhibition at 10 μM
Outline: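 LL29 fibroblasts from IPF patients, in F12 medium with 1% FBS, treated with TGF-β1 plus compound; TGF-β1 with DMSO as positive control, DMSO alone as negative control. After 4 days' incubation, SYTOX green nucleic acid stain added at 1 μM final, 30 min at room temperature.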

IL-6 = IL-6 inhibition in LPS-stimulated human peripheral blood mononuclear cells (HTRF); format: cell-based; conditions: for pEC50: huPBMCs, LPS 50 ng/mL, 22 hours, IL-6 HTRF; for inhibition at 10 µM: read-out: percent inhibition at 10 μM
Outline: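 Fresh human PBMCs at 1×10e6 cells/mL in 1% FBS-RPMI were pretreated with compound for 2 h, then stimulated with 50 ng/mL E. coli 0111:B4 LPS for a further 22 h at 37 °C. IL-6 was measured by HTRF (665/620 nm ratio). Values were normalized to DMSO and fitted 4-parameter for EC50.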

[4] = target: recombinant DYRK1A kinase (Homo sapiens (Human), UniProt Q13627); assay: DYRK1A kinase assay (Ser/Thr 18 peptide Z-lyte, FRET); conditions: DYRK1A kinase, 30 μM ATP, one hour; method calls values IC50

recombinant GSK3β kinase, sequence (P49841 whole entry): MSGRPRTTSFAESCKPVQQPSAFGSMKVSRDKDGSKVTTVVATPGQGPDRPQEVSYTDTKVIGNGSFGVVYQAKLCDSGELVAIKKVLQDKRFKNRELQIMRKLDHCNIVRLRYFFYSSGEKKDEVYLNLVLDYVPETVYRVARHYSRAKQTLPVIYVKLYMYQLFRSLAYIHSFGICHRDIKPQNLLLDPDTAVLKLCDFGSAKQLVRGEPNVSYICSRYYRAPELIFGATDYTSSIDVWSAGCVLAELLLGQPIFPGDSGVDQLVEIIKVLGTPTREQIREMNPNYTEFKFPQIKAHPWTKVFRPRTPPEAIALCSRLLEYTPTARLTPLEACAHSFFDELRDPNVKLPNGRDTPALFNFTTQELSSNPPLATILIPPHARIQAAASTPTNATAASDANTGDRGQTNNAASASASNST

Row | pEC50 ([1]; Homo sapiens) | pEC50 (recombinant GSK3β kinase) | pEC50 ([2]; Homo sapiens, 96 h) | pEC50 (IL-6; Homo sapiens, PBMC) | pEC50 [4] | pEC50 [1] | pEC50 [2] | pEC50 (IL-6) | Compound | pEC50 ([3]; Homo sapiens, Fibroblast, 96 h) | inhibition at 10 µM ([3]; Homo sapiens, Fibroblast) | inhibition at 10 µM (IL-6; Homo sapiens, PBMC) | pEC50 [3]
1 | 7.47 | 6.41 | 7.34 | 6.05 | 8.40 |  |  |  | Cc1nnc(-c2ccc3cnc(NC(=O)c4cnn(C5CCN(C(C)C)CC5)c4)cc3c2)s1 [Compound 66, 1-(1-Isopropylpiperidin-4-yl)-N-(6-(5-methyl-1,3,4-thiadiazol-2-yl)isoquinolin-3-yl)-1H-pyrazole-4-carboxamide] | 6.77 |  |  | 
2 | 7.48 | 6.46 | 7.36 | 6.36 | 8.52 |  |  |  | CC(C)N1CCC(n2cc(C(=O)Nc3cc4cc(-c5cn(C)nn5)ccc4cn3)cn2)CC1 [Compound 32, 1-(1-Isopropylpiperidin-4-yl)-N-(6-(1-methyl-1H-1,2,3-triazol-4-yl)isoquinolin-3-yl)-1H-pyrazole-4-carboxamide] | 6.69 |  |  | 
3 | 7.15 | 6.50 | 6.59 | 6.07 | 8.15 |  |  |  | Cn1cc(-c2ccc3cnc(NC(=O)c4cn(C5CCNCC5)nn4)cc3c2)nn1 [Compound 33, N-(6-(1-Methyl-1H-1,2,3-triazol-4-yl)isoquinolin-3-yl)-1-(piperidin-4-yl)-1H-1,2,3-triazole-4-carboxamide] | 6.25 |  |  | 
4 | 5.66 | 5.30 | 5.44 | < 5.00 | 8.05 |  |  |  | Cn1cnc(C(=O)Nc2cc3cc(-c4cncn4C)ccc3cn2)n1 [Compound 52, 1-Methyl-N-(6-(1-methyl-1H-imidazol-5-yl)isoquinolin-3-yl)-1H-1,2,4-triazole-3-carboxamide] | < 5.00 | 33.8% | 1.1% | 
5 | 7.43 | 6.07 | 6.99 | 6.21 | 8.70 |  |  |  | CCn1cc(C(=O)Nc2cc3cc(-c4cncn4C)ccc3cn2)cn1 [Compound 41, 1-Ethyl-N-(6-(1-methyl-1H-imidazol-5-yl)isoquinolin-3-yl)-1H-pyrazole-4-carboxamide] | 6.91 |  |  | 
6 | 6.98 | 6.47 | 6.75 | 5.58 | 7.62 |  |  |  | CN1CCC(c2nc(C(=O)Nc3cc4cc(-c5cn(C)nn5)ccc4cn3)co2)CC1 [Compound 37, N-(6-(1-Methyl-1H-1,2,3-triazol-4-yl)isoquinolin-3-yl)-2-(1-methylpiperidin-4-yl)oxazole-4-carboxamide] | 6.61 |  |  | 
7 | 6.26 | 5.87 | 5.79 | < 5.00 | 6.74 |  |  |  | CC(C)N1CCC(c2nc(C(=O)Nc3cc4cc(-c5cn(C)nn5)ccc4cn3)co2)CC1 [Compound 38, 2-(1-Isopropylpiperidin-4-yl)-N-(6-(1-methyl-1H-1,2,3-triazol-4-yl)isoquinolin-3-yl)oxazole-4-carboxamide] | < 5.00 | 3.9% | 5.3% | 
8 | 7.46 | 5.87 | 7.14 | 6.55 | 8.70 |  |  |  | CC(C)n1cnc(C(=O)Nc2cc3cc(-c4cncn4C)ccc3cn2)c1 [Compound 49, 1-Isopropyl-N-(6-(1-methyl-1H-imidazol-5-yl)isoquinolin-3-yl)-1H-imidazole-4-carboxamide] | 7.07 |  |  | 
9 | 5.94 | 5.47 | 5.45 | < 5.00 | 7.74 |  |  |  | Cn1cnc(C(=O)Nc2cc3cc(-c4cncn4C)ccc3cn2)c1 [Compound 48, 1-Methyl-N-(6-(1-methyl-1H-imidazol-5-yl)isoquinolin-3-yl)-1H-imidazole-4-carboxamide] | < 5.00 | 6.7% | 17.8% | 
10 | 5.90 | 5.75 | 5.66 | < 5.00 | 8.30 |  |  |  | Cn1ccc(C(=O)Nc2cc3cc(-c4cncn4C)ccc3cn2)n1 [Compound 46, 1-Methyl-N-(6-(1-methyl-1H-imidazol-5-yl)isoquinolin-3-yl)-1H-pyrazole-3-carboxamide] | 5.82 |  | 46.1% | 
11 | 5.95 | 6.01 | 5.51 | 5.02 | 8.15 |  |  |  | Cc1coc(C(=O)Nc2cc3cc(-c4cncn4C)ccc3cn2)n1 [Compound 55, 4-Methyl-N-(6-(1-methyl-1H-imidazol-5-yl)isoquinolin-3-yl)oxazole-2-carboxamide] | 5.42 |  |  | 
12 | 7.20 | 5.17 | 6.95 | 6.25 | 8.30 |  |  |  | Cc1ncc(-c2ccc3cnc(NC(=O)c4cnn(C(C)C)c4)cc3c2)n1C [Compound 61, N-(6-(1,2-Dimethyl-1H-imidazol-5-yl)isoquinolin-3-yl)-1-isopropyl-1H-pyrazole-4-carboxamide] | 6.50 |  |  | 
13 |  | 5.02 |  |  | 8.10 | 6.99 | 6.84 | 6.12 | N-(6-(1-Methyl-1H-pyrazol-4-yl)isoquinolin-3-yl)-2-(4-methylpiperazin-1-yl)oxazole-5-carboxamide [Compound 15] |  |  |  | 6.55
14 | 7.26 | 5.92 | 6.95 | 6.38 | 9.00 |  |  |  | CC(C)Cn1cc(C(=O)Nc2cc3cc(-c4cncn4C)ccc3cn2)cn1 [Compound 45, 1-Isobutyl-N-(6-(1-methyl-1H-imidazol-5-yl)isoquinolin-3-yl)-1H-pyrazole-4-carboxamide] | 7.06 |  |  | 
15 | 5.59 | 5.79 | 5.74 | < 5.00 | 8.22 |  |  |  | Cc1nc(C(=O)Nc2cc3cc(-c4cncn4C)ccc3cn2)cs1 [Compound 57, 2-Methyl-N-(6-(1-methyl-1H-imidazol-5-yl)isoquinolin-3-yl)thiazole-4-carboxamide] | 5.55 |  | 19.6% | 
16 | 6.41 | 5.00 | 6.22 | 5.46 | 7.41 |  |  |  | CC(C)n1cc(C(=O)Nc2cc3cc(-c4cnn(C5CCN(C)CC5)c4)ccc3cn2)cn1 [Compound 1, 1-Isopropyl-N-(6-(1-(1-methylpiperidin-4-yl)-1H-pyrazol-4-yl)isoquinolin-3-yl)-1H-pyrazole-4-carboxamide] | 6.02 |  |  | 
17 | 5.67 | 5.72 | 5.43 | 5.19 | 7.74 |  |  |  | CC(C)c1nc(C(=O)Nc2cc3cc(-c4cncn4C)ccc3cn2)co1 [Compound 54, 2-Isopropyl-N-(6-(1-methyl-1H-imidazol-5-yl)isoquinolin-3-yl)oxazole-4-carboxamide] | 5.49 |  |  | 
18 | 6.96 | 5.74 | 6.35 | 6.12 | 8.40 |  |  |  | Cn1cc(C(=O)Nc2cc3cc(-c4cncn4C)ccc3cn2)cn1 [Compound 40, 1-Methyl-N-(6-(1-methyl-1H-imidazol-5-yl)isoquinolin-3-yl)-1H-pyrazole-4-carboxamide] | < 5.00 | 23.2% |  | 
